Assay: Stroke statin response (SSR) in the CARE pravastatin trial: pravastatin-treated versus placebo-treated, by SNP genotype
Assay type: in vivo, human
Settings: for EVENTS: stroke events in pravastatin arm

CC[C@H](C)C(=O)O[C@H]1C[C@H](O)C=C2C=C[C@H](C)[C@H](CC[C@@H](O)C[C@@H](O)CC(=O)O)[C@H]21 [pravastatin] gave an EVENTS (CARE, rs2038366, REC, genotype GT + TT, TOTAL 789) of 38, an EVENTS (CARE, rs3213646 EXOD1, DOM, genotype CT + CC, TOTAL 1108) of 51 and an EVENTS (CARE, rs3213646 EXOD1, GEN, genotype CC, TOTAL 417) of 27. It also gave an EVENTS (CARE, rs3213646 EXOD1, GEN, genotype CT, TOTAL 691) of 24, an EVENTS (CARE, rs3213646 EXOD1, GEN, genotype TT, TOTAL 245) of 13 and an EVENTS (CARE, rs3213646 EXOD1, REC, genotype CT + TT, TOTAL 936) of 37. For the same compound, the EVENTS (CARE, rs3900940 MYH15, DOM, genotype CT + CC, TOTAL 721) was 36, the EVENTS (CARE, rs3900940 MYH15, GEN, genotype CC, TOTAL 160) was 13 and the EVENTS (CARE, rs3900940 MYH15, GEN, genotype CT, TOTAL 561) was 23. It also gave an EVENTS (CARE, rs3900940 MYH15, GEN, genotype TT, TOTAL 620) of 30, an EVENTS (CARE, rs3900940 MYH15, REC, genotype CT + TT, TOTAL 1181) of 53 and an HR (pravastatin vs placebo, ENDPT4F1, hCV1463226 rs10890 FXN, GEN, genotype CC) of 0.48. The HR (pravastatin vs placebo, ENDPT4F1, hCV1463226 rs10890 FXN, GEN, genotype TT) was 0.41, the HR (pravastatin vs placebo, ENDPT4F1, hCV1846459 rs4803759, GEN, genotype CC) was 0.66 and the HR (pravastatin vs placebo, ENDPT4F1, hCV1846459 rs4803759, GEN, genotype TC) was 0.62. For the same compound, the HR (pravastatin vs placebo, ENDPT4F1, hCV1846459 rs4803759, REC, genotype TC + CC) was 0.64, the HR (pravastatin vs placebo, ENDPT4F1, hCV2442143 rs12544854 ASAH1, DOM, genotype TC + TT, first listing (TOTAL 1070)) was 0.57 and the HR (pravastatin vs placebo, ENDPT4F1, hCV2442143 rs12544854 ASAH1, DOM, genotype TC + TT, second listing (TOTAL 1059)) was 0.56. The HR (pravastatin vs placebo, ENDPT4F1, hCV2442143 rs12544854 ASAH1, GEN, genotype TC, first listing (TOTAL 713)) was 0.55, the HR (pravastatin vs placebo, ENDPT4F1, hCV2442143 rs12544854 ASAH1, GEN, genotype TC, second listing (TOTAL 704)) was 0.57 and the HR (pravastatin vs placebo, ENDPT4F1, hCV2741051 rs2230806 ABCA1, DOM, genotype TC + TT, first listing (TOTAL 709)) was 0.47. It also gave an HR (pravastatin vs placebo, ENDPT4F1, hCV2741051 rs2230806 ABCA1, DOM, genotype TC + TT, second listing (TOTAL 711)) of 0.47, an HR (pravastatin vs placebo, ENDPT4F1, hCV2741051 rs2230806 ABCA1, GEN, genotype TC, first listing (TOTAL 597)) of 0.47 and an HR (pravastatin vs placebo, ENDPT4F1, hCV2741051 rs2230806 ABCA1, GEN, genotype TC, second listing (TOTAL 603)) of 0.5. The HR (pravastatin vs placebo, ENDPT4F1, hCV2862873 rs780094 GCKR, DOM, genotype TC + TT) was 0.6, the HR (pravastatin vs placebo, ENDPT4F1, hCV2959482 rs3890182 ABCA1, DOM, genotype AG + AA) was 0.34 and the HR (pravastatin vs placebo, ENDPT4F1, hCV2959482 rs3890182 ABCA1, GEN, genotype AG) was 0.34. The HR (pravastatin vs placebo, ENDPT4F1, hCV3216551 rs562338, GEN, genotype GG) was 0.59, the HR (pravastatin vs placebo, ENDPT4F1, hCV8757333 rs1800588 LIPC, DOM, genotype TC + TT) was 0.49 and the HR (pravastatin vs placebo, ENDPT4F1, hCV8942032 rs1264352 DDR1, DOM, genotype CG + CC, risk allele C) was 0.41. For the same compound, the HR (pravastatin vs placebo, ENDPT4F1, hCV9296529 rs4358307, GEN, genotype GA) was 0.5, the HR (pravastatin vs placebo, ENDPT4F1, hCV9324316 rs9305020, GEN, genotype TT) was 0.7 and the HR (pravastatin vs placebo, ENDPT4F1, hCV9324316 rs9305020, REC, genotype CT + TT) was 0.76. For the same compound, the HR (pravastatin vs placebo, ENDPT4F1, hCV9473891 rs1555173, REC, genotype CT + TT) was 0.75, the HR (pravastatin vs placebo, ENDPT4F1, hCV16164743 rs2928932, GEN, genotype AA) was 0.6 and the HR (pravastatin vs placebo, ENDPT4F1, hCV16164743 rs2928932, GEN, genotype CC) was 0.31. The HR (pravastatin vs placebo, ENDPT4F1, hCV22275299 rs28927680 BUD13, GEN, genotype GC) was 0.2, the HR (pravastatin vs placebo, ENDPT4F1, hCV26682080 rs4420638, DOM, genotype GA + GG) was 0.45 and the HR (pravastatin vs placebo, ENDPT4F1, hCV26682080 rs4420638, GEN, genotype GA) was 0.5. For the same compound, the HR (pravastatin vs placebo, ENDPT4F1, hCV26682080 rs4420638, GEN, genotype GG) was 0.25, the HR (pravastatin vs placebo, ENDPT4F1, hCV29480044 rs10516433 TSPAN5, GEN, genotype TC) was 0.46 and the HR (pravastatin vs placebo, ENDPT4F1, hCV29480044 rs10516433 TSPAN5, REC, genotype TC + CC) was 0.67. The HR (pravastatin vs placebo, ENDPT4F1, hCV29566897 rs10507755, REC, genotype CT + TT) was 0.76, the HR (pravastatin vs placebo, ENDPT4F1, hCV30454150 rs10516434 TSPAN5, GEN, genotype TC) was 0.46 and the HR (pravastatin vs placebo, ENDPT4F1, hCV30454150 rs10516434 TSPAN5, REC, genotype TC + CC) was 0.67. For the same compound, the HR (pravastatin vs placebo, ENDPT4F1, hDV77718013, REC, genotype TC + CC) was 0.74, the HR (rs1048621 (hCV1619596, SDCBP2), ALL, genotype AA, MODE GEN, ENDPT4F1, pravastatin vs placebo, CARE) was 0.16 and the HR (rs1048621 (hCV1619596, SDCBP2), ALL, genotype AG + AA, MODE DOM, ENDPT4F1, pravastatin vs placebo, CARE) was 0.69. It also gave an HR (rs1048621 (hCV1619596, SDCBP2), ALL, genotype AG + GG, MODE REC, ENDPT4F1, pravastatin vs placebo, CARE) of 0.82, an HR (rs1048621 (hCV1619596, SDCBP2), ALL, genotype AG, MODE GEN, ENDPT4F1, pravastatin vs placebo, CARE) of 0.89 and an HR (rs1048621 (hCV1619596, SDCBP2), ALL, genotype GG, MODE GEN, ENDPT4F1, pravastatin vs placebo, CARE) of 0.77. For the same compound, the HR (rs1264352 (hCV8942032, DDR1), genotype CC, MODE GEN, ENDPT4F1, pravastatin vs placebo, CARE) was 0.86, the HR (rs1264352 (hCV8942032, DDR1), genotype CG + CC, MODE DOM, ENDPT4F1, pravastatin vs placebo, CARE) was 0.41 and the HR (rs1264352 (hCV8942032, DDR1), genotype CG + GG, MODE REC, ENDPT4F1, pravastatin vs placebo, CARE) was 0.73. It also gave an HR (rs1264352 (hCV8942032, DDR1), genotype CG, MODE GEN, ENDPT4F1, pravastatin vs placebo, CARE) of 0.39, an HR (rs1264352 (hCV8942032, DDR1), genotype GG, MODE GEN, ENDPT4F1, pravastatin vs placebo, CARE) of 0.84 and an HR (rs2857595 (hCV16134786), ALL, genotype AA, MODE GEN, ENDPT4F1, pravastatin vs placebo, CARE) of 0.23. The HR (rs2857595 (hCV16134786), ALL, genotype AG + AA, MODE DOM, ENDPT4F1, pravastatin vs placebo, CARE) was 0.58, the HR (rs2857595 (hCV16134786), ALL, genotype AG + GG, MODE REC, ENDPT4F1, pravastatin vs placebo, CARE) was 0.77 and the HR (rs2857595 (hCV16134786), ALL, genotype AG, MODE GEN, ENDPT4F1, pravastatin vs placebo, CARE) was 0.67. It also gave an HR (rs2857595 (hCV16134786), ALL, genotype GG, MODE GEN, ENDPT4F1, pravastatin vs placebo, CARE) of 0.8, an HR (rs11079160 (hCV32160712), ALL, genotype AA, MODE GEN, ENDPT4F1, pravastatin vs placebo, CARE) of 0.86 and an HR (rs11079160 (hCV32160712), ALL, genotype TA + AA, MODE REC, ENDPT4F1, pravastatin vs placebo, CARE) of 0.78. It also gave an HR (rs11079160 (hCV32160712), ALL, genotype TA + TT, MODE DOM, ENDPT4F1, pravastatin vs placebo, CARE) of 0.55, an HR (rs11079160 (hCV32160712), ALL, genotype TA, MODE GEN, ENDPT4F1, pravastatin vs placebo, CARE) of 0.62 and an HR (rs11079160 (hCV32160712), ALL, genotype TT, MODE GEN, ENDPT4F1, pravastatin vs placebo, CARE) of 0.24. It also gave an HR (rs12762303 (hCV27830265, ALOX5), genotype AA, MODE GEN, ENDPT4F1, pravastatin vs placebo, CARE, first listing (TOTAL 1005)) of 0.84, an HR (rs12762303 (hCV27830265, ALOX5), genotype AA, MODE GEN, ENDPT4F1, pravastatin vs placebo, CARE, second listing (TOTAL 1002)) of 0.85 and an HR (rs12762303 (hCV27830265, ALOX5), genotype GA + AA, MODE REC, ENDPT4F1, pravastatin vs placebo, CARE, first listing (TOTAL 1381)) of 0.73. The HR (rs12762303 (hCV27830265, ALOX5), genotype GA + AA, MODE REC, ENDPT4F1, pravastatin vs placebo, CARE, second listing (TOTAL 1377)) was 0.73, the HR (rs12762303 (hCV27830265, ALOX5), genotype GA + GG, MODE DOM, ENDPT4F1, pravastatin vs placebo, CARE, first listing (TOTAL 399)) was 0.46 and the HR (rs12762303 (hCV27830265, ALOX5), genotype GA + GG, MODE DOM, ENDPT4F1, pravastatin vs placebo, CARE, second listing (TOTAL 398)) was 0.46. The HR (rs12762303 (hCV27830265, ALOX5), genotype GA, MODE GEN, ENDPT4F1, pravastatin vs placebo, CARE, first listing (TOTAL 376)) was 0.47, the HR (rs12762303 (hCV27830265, ALOX5), genotype GA, MODE GEN, ENDPT4F1, pravastatin vs placebo, CARE, second listing (TOTAL 375)) was 0.47 and the HR (rs12762303 (hCV27830265, ALOX5), genotype GG, MODE GEN, ENDPT4F1, pravastatin vs placebo, CARE, first listing (TOTAL 23)) was 0. It also gave an HR (rs12762303 (hCV27830265, ALOX5), genotype GG, MODE GEN, ENDPT4F1, pravastatin vs placebo, CARE, second listing (TOTAL 23)) of 0.
